Measurements taken from article PMC9784689, “Bioactivity Profiling of In Silico Predicted Linear Toxins from the Ants Myrmica rubra and Myrmica ruginodis” (Toxins, 2022).
Like-named read-outs stand apart in the source and are kept apart here. No end group written: not given here.

Legend:
[1] = tested on: Staphylococcus epidermidis (ATCC 35984; DSM 28319); details: at least 95% growth inhibition, nine log2 dilutions, triplicate, MH II, 48 h
Experimental: (§1) Cryo-conserved cultures (Table 3) were transferred with a sterile inoculation loop to tryptic soy agar (TSA) plates (Carl Roth) sealed with Parafilm (BEMIS, Neenah, WI, USA), and were incubated for 1–2 days at 37 °C depending on growth rates. Plates were then stored at 4 °C. For each of the three replicates, single colonies were picked with a sterile pipette tip, transferred into 2–3 mL Mueller-Hinton II (MH II) medium (BD, Heidelberg, Germany) and cultivated for ~24 h in unsealed 15 mL reaction tubes at 37 °C, shaking at 180 rpm. […] We measured the optical density at 600 nm (OD600) by transferring 1 mL of bacterial suspension to a polystyrene cuvette (SARSTED, Nümbrecht, Germany) in an Ultrospec 10 photometer (Biochrome, Cambridge, UK). […]
(§2) The experiments were carried out in 96-multiwell plates with a final volume of 100 µL per well (50 µL of bacterial suspension; 50 µL of testing peptide with a final concentration of 1.9% DMSO). […] The OD600 was measured after 0, 24, and 48 h using a BioTek Eon microplate reader and Gen5 v2.09. One experiment was carried out with automatic OD600 measurement every 20 min with a prior 30 s double orbital rotation at 237 rpm with overall incubation at 37 °C for 60 h in the microplate reader. […]

[2] = tested on: Escherichia coli DE3 (BL21(DE3)); details: E. coli, 100 µM, after 48 h, MH II medium, 37 °C, OD600 normalized to untreated bacteria, triplicate
[3] = tested on: Staphylococcus epidermidis (ATCC 35984; DSM 28319); details: S. epidermidis, 100 µM, after 48 h, MH II medium, 37 °C, OD600 normalized to untreated bacteria, triplicate
[4] = tested on: Listeria monocytogenes (DSM 20600); assay type: cell-based; details: 20 µL per dilution from 48 h MIC experiments plated on TSA, n = 2
[5] = tested on: Micrococcus luteus (DSM 20030); details: at least 95% growth inhibition, nine log2 dilutions, triplicate, MH II, 48 h
Experimental: as §1, §2

[6] = tested on: Staphylococcus aureus (DSM 2569); details: at least 95% growth inhibition, nine log2 dilutions, triplicate, MH II, 48 h
Experimental: as §1, §2

[7] = tested on: Micrococcus luteus (DSM 20030); assay type: cell-based; details: 20 µL per dilution from 48 h MIC experiments plated on TSA, n = 2
[8] = tested on: Escherichia coli DE3 (BL21(DE3)); details: at least 95% growth inhibition, nine log2 dilutions, triplicate, MH II, 48 h
Experimental: as §1, §2

[9] = tested on: Staphylococcus aureus (DSM 2569); details: S. aureus, 100 µM, after 48 h, MH II medium, 37 °C, OD600 normalized to untreated bacteria, triplicate
[10] = tested on: Micrococcus luteus (DSM 20030); details: M. luteus, 100 µM, after 48 h, MH II medium, 37 °C, OD600 normalized to untreated bacteria, triplicate
[11] = tested on: Escherichia coli DE3 (BL21(DE3)); assay type: cell-based; details: 20 µL per dilution from 48 h MIC experiments plated on TSA, n = 2
MDCK II cells = details: MDCK II cells, 100 µM, 1% DMSO, 48 h, CellTiter-Glo luminescence, triplicate
[12] = tested on: Staphylococcus epidermidis (ATCC 35984; DSM 28319); assay type: cell-based; details: 20 µL per dilution from 48 h MIC experiments plated on TSA, n = 2
[13] = tested on: Listeria monocytogenes (DSM 20600); details: L. monocytogenes, 100 µM, after 48 h, MH II medium, 37 °C, OD600 normalized to untreated bacteria, triplicate
[14] = tested on: Influenza A/Hessen/1/03 (H3N2) in MDCK II cells; assay type: cell-based, influenza A virus; details: 100 µM peptides, 48 h
[15] = tested on: Influenza B/Massachusetts/71 (Yamagata lineage) in MDCK II cells; assay type: cell-based, influenza B virus; details: B/Mass, 100 µM peptides, 48 h
[16] = tested on: Escherichia coli, Staphylococcus aureus, Staphylococcus epidermidis, Pseudomonas aeruginosa (strains 50071 and 1117), Micrococcus luteus, Listeria …; experiment: Antibacterial activity, statements for the whole panel of seven strains; assay type: cell-based; details: 100 µM, after 48 h, MH II medium, 37 °C, OD600, triplicate
[17] = tested on: larvae of the greater wax moth (Galleria mellonella); experiment: Insecticidal activity, injection into larvae; assay type: in vivo; details: G. mellonella larvae, injection of 5 µL of 10 mM stock in DMSO/water, at least 72 h, 10 specimens
[18] = tested on: Influenza B/Malaysia/2506/04 (Victoria lineage) in MDCK II cells; assay type: cell-based, influenza B virus; details: B/Mal, 100 µM peptides, 48 h
[19] = tested on: Influenza A/Hamburg/5/09 (H1N1) in MDCK II cells; assay type: cell-based, influenza A virus; details: 100 µM peptides, 48 h

Substance | Normalized to Aprotinin =1 (protection) ([14]; replicate 1) | Normalized to Aprotinin =1 (protection) ([14]; replicate 2) | Normalized to Aprotinin =1 (protection) ([14]; replicate 3) | Normalized to Aprotinin =1 (protection) ([15]; replicate 1) | Normalized to Aprotinin =1 (protection) ([15]; replicate 2) | Normalized to Aprotinin =1 (protection) ([15]; replicate 3) | Inhibition of bacterial growth, in words [16] | Injected larvae surviving [17] [%] | Normalized to Aprotinin =1 (protection) ([18]; replicate 1) | Normalized to Aprotinin =1 (protection) ([18]; replicate 2) | Normalized to Aprotinin =1 (protection) ([18]; replicate 3) | Normalized to Aprotinin =1 (protection) ([19]; replicate 1) | Normalized to Aprotinin =1 (protection) ([19]; replicate 2) | Normalized to Aprotinin =1 (protection) ([19]; replicate 3) | further results
INPKLWLKLF-NH2 [U-MYRTX-Mrug5a] |  |  |  |  |  |  |  |  |  |  |  |  |  |  | MIC [1]: 50 µM; Inhibition of growth [2]: 97%; Inhibition of growth [3]: 97%; MBC [4]: 50 µM; MIC [5]: 6.25 µM; MIC [6]: 100 µM; MBC [7]: 6.25 µM; MIC [8]: 50 µM; Inhibition of growth [9]: 96%; Inhibition of growth [10]: 89%; MBC [11]: 50 µM; Cytotoxicity (cell viability), in words (MDCK II cells): negligible cytotoxicity; MBC [12]: 50 µM; Inhibition of growth [13]: 81%
IDSDALKSLQ-NH2 (C-terminus assumed) [U-MYRTX-Mrub4a/Mrug7a] | 0.05779 | 0.05634 | 0.06216 | 0.01827 | 0.02714 | 0.01553 | no significant inhibition of bacterial growth | 80 | 0.06158 | 0.1088 | 0.1041 | 0.0395 | 0.05779 | 0.05022 | 
IDPKVLESLL-NH2 (C-terminus assumed) [U-MYRTX-Mrug2b] | 0.0328 | 0.05462 | 0.05537 | 0.01653 | 0.01885 | 0.02698 | no significant inhibition of bacterial growth | 80 | 0.03893 | 0.02764 | 0.1043 | 0.05063 | 0.0441 | 0.04545 | 
